Measurements from US8148373B2, “Compounds” (AstraZeneca AB, priority 2008, dated 2012).

Legend:
[1] = biological target: T1, human muscarinic acetylcholine M3 receptor (M3-ACh) (Homo sapiens, UniProt P20309); experiment: Muscarinic 3 Receptor Binding Assay, % inhibition specific binding at 1 μM; details: 1 μM compound, % inhibition specific [3H]-NMS binding
T1 construct: expressed in transfected cells; host or cells: CHO-K1 (Chinese Hamster Ovary) cell membranes
Method: The following experimental procedure was used to determine the M3% inhibition at 1 μM of the compounds of Examples 116-263.
Muscarinic 3 Receptor Binding Assay
The activity (% inhibition specific binding) of compounds -on the M3 receptor is determined by competition binding of [^3H]N-methyl scopolamine (NMS) to CHO-K1 (Chinese Hamster Ovary) cell membranes expressing the human muscarinic acetylcholine M3 receptor (M3-ACh) in a scintillation proximity assay (SPA) format.
SPA beads are precoated with membranes and then incubated at 2 mg of beads per well with 1 μM compound of the invention, [^3H]NMS at 0.1 nM, quarter Kd (experimentally determined dissociation constant) and assay buffer (20 mM HEPES pH 7.4 containing 5 mM MgCl2). The assay is conducted in a final volume of 200 μL, in the presence of 1% (v/v) dimethyl sulphoxide (DMSO). Total binding of [^3H]NMS is determined in the absence of competing compound and non-specific binding of [^3H]NMS is determined in the presence of 1 μM atropine. The plates are incubated for 16 hours at room temperature and then read on Wallac Microbeta™ using a normalised ^3H protocol. The compound activity at 1 defined as % inhibition specific [^3H]-NMS binding, is determined.

[2] = biological target: T2, Adrenergic β2 (H292 cells) (Homo sapiens, UniProt P07550); experiment: Adrenergic β2 Mediated cAMP Production, single concentration 1 μM; format: cell-based; details: percentage of the maximum response generated by 1E-07M formoterol; for activation at 1 µM: NCI-H292, 1 μM compound, read-out: β2 (% effect at 1 μM)
T2 construct: endogenous in cells; host or cells: H292 cells
T2 sequence (P07550 whole entry): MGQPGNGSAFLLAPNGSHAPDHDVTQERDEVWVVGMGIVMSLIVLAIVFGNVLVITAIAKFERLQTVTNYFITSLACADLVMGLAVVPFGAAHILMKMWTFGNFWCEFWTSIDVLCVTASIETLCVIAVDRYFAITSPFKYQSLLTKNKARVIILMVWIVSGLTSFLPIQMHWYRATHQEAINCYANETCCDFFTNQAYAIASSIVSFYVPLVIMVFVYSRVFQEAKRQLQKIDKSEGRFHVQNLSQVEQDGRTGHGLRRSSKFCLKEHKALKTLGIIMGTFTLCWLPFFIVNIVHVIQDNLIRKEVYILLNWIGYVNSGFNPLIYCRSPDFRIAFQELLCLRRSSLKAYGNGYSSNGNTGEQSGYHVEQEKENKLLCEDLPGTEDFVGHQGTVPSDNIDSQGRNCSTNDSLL
Method: The following experimental procedure was used to measure the beta-2% effect at 1 μM for the compounds of Examples 116-263. Adrenergic β2 Mediated cAMP Production Cell Preparation
H292 cells are grown in 225 cm2 flasks incubator at 37° C., 5% CO2 in RPMI medium containing 10% (v/v) FBS (foetal bovine serum) and 2 mM L-glutamine.
Compounds were prepared by an initial first dilution into DMSO to give 1 mM stock concentration. This was followed by a 1 in 10 dilution of the stock concentration (10 μl stock compound+90 μl DMSO) to give 0.1 mM compound.
A compound addition plate was prepared by making a further 1 in 25 dilution in assay buffer (HBSS solution containing 10 mM HEPES pH7.4 and 5 mM glucose) containing 4% dimethylsulfoxide. The final compound concentration in assay is 1 μM.
Adherent H292 cells are removed from tissue culture flasks by treatment with Accutase™ cell detachment solution for 15 minutes. Flasks are incubated for 15 minutes in a humidified incubator at 37° C., 5% CO2. Detached cells are re-suspended in RPMI media (containing 10% (v/v) FBS and 2 mM L-glutamine) at 0.1×10^6 cells per mL. 10000 cells in 100 μL are added to each well of a tissue-culture-treated 96-well plate and the cells incubated overnight in a humidified incubator at 37° C., 5% CO2. The culture media is removed and cells are washed twice with 100 μL assay buffer and replaced with 50 μL assay buffer (HBSS solution containing 10 mM HEPES pH7.4 and 5 mM glucose). Cells are rested at room temperature for 20 minutes after which time 25 μL of rolipram (1.2 mM made up in assay buffer) is added. Cells are incubated with rolipram for 10 minutes after which time 25 μl test compounds are added and the cells are incubated for 60 minutes at room temperature. The final rolipram concentration in the assay is 300 μM and final vehicle concentration is 1% (v/v) dimethylsulphoxide. The reaction is stopped by removing supernatants, washing once with 100 μL assay buffer and replacing with 50 μL lysis buffer. The cell monolayer is frozen at −80° C. for 30 minutes (or overnight).
AlphaScreen™ cAMP Detection
The concentration of cAMP (cyclic adenosine monophosphate) in the cell lysate is determined using AlphaScreen™ methodology. The frozen cell plate is thawed for 20 minutes on a plate shaker then 10 μL of the cell lysate is transferred to a 96-well white plate. 40 μL of mixed AlphaScreen™ detection beads (containing equal volumes of donor beads (pre-incubated with biotinylated cAMP in the dark for 30 minutes) and acceptor beads is added to each well and the plate incubated at room temperature for 3 hours in the dark. The AlphaScreen™ signal is measured using an EnVision spectrophotometer (Perkin-Elmer Inc.) with the recommended manufacturer's settings. Concentration of cAMP produced per well were calculated with reference to the cAMP standard curve determined in the same experiment and expressed as a percentage of the maximum response generated by 1E-07M formoterol.

T1 sequence (P20309 whole entry): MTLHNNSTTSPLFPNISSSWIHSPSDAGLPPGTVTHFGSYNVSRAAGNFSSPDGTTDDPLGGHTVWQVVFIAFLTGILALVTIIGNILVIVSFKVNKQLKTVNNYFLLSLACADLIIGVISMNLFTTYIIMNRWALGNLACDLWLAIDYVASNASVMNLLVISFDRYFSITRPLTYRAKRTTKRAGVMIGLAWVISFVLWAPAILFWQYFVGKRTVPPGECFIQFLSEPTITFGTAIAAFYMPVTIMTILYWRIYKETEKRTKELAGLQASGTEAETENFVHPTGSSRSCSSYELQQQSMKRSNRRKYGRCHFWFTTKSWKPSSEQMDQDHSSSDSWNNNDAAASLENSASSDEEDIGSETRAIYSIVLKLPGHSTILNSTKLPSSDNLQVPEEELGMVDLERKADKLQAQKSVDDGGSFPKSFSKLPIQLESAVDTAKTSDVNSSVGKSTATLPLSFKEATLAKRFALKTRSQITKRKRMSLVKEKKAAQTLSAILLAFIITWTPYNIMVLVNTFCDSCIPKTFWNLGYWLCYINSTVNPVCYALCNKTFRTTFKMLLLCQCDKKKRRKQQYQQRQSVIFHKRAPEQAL

inhibition at 1 µM [1] [%] | activation at 1 µM [2] [%] | M3 (% inhibition at 1 μM) [1] [%] | β2 (% effect at 1 μM) ([2]; 1 μM compound) [%] | Compound
31 | 76 | – | – | Cc1cc(CC(=O)N2CCOC3(CCN(CCOc4ccc(CNC[C@H](O)c5ccc(O)c6[nH]c(=O)sc56)cc4)CC3)C2)on1 [Example 249, (R)-4-hydroxy-7-(1-hydroxy-2-(4-(2-(4-(2-(3-methylisoxazol-5-yl)acetyl)-1-oxa-4,9-diazaspiro[5.5]undecan-9-yl)ethoxy)benzylamino)ethyl) benzo[d]thiazol-2(3H)-one]
48 | 60 | – | – | O=C(COCc1ccccc1)N1CCOC2(CCN(CCOc3ccc(CNC[C@H](O)c4ccc(O)c5[nH]c(=O)sc45)cc3)CC2)C1 [Example 244, (R)-7-(2-(4-(2-(4-(2-(benzyloxy)acetyl)-1-oxa-4,9-diazaspiro[5.5]undecan-9-yl)ethoxy)benzylamino)-1-hydroxyethyl)-4-hydroxy-benzo[d]thiazol-2(3H)-one]
28 | 102 | – | – | CCOc1ccc(O)c(C(=O)N2CCOC3(CCN(Cc4cc(F)cc(CCNC[C@H](O)c5ccc(O)c6[nH]c(=O)sc56)c4)CC3)C2)c1 [Example 154, (R)-7-(2-(3-((4-(5-ethoxy-2-hydroxybenzoyl)-1-oxa-4,9-diazaspiro[5.5]undecan-9-yl)methyl)-5-fluorophenethylamino)-1-hydroxyethyl)-4-hydroxybenzo[d]thiazol-2(3H)-one]
– | – | 37 | 74 | Cc1cc(C(=O)N2CCOC3(CCN(CCOc4ccc(CNC[C@H](O)c5ccc(O)c6[nH]c(=O)sc56)cc4)CC3)C2)sc1C [Example 263]
36 | 56 | – | – | CC(C)(C)c1nc(C(=O)N2CCOC3(CCN(CCOc4ccc(CNC[C@H](O)c5ccc(O)c6[nH]c(=O)sc56)cc4)CC3)C2)cs1 [Example 257, (R)-7-(2-(4-(2-(4-(2-tert-butylthiazole-4-carbonyl)-1-oxa-4,9-diazaspiro[5.5]undecan-9-yl)ethoxy)benzylamino)-1-hydroxyethyl)-4-hydroxy-benzo[d]thiazol-2(3H)-one]
57 | 73 | – | – | Cc1occc1C(=O)N1CCOC2(CCN(CCOc3ccc(CNC[C@H](O)c4ccc(O)c5[nH]c(=O)sc45)cc3)CC2)C1 [Example 238, (R)-4-hydroxy-7-(1-hydroxy-2-(4-(2-(4-(2-methylfuran-3-carbonyl)-1-oxa-4,9-diazaspiro[5.5]undecan-9-yl)ethoxy)benzylamino)ethyl) benzo[d]thiazol-2(3H)-one]
56 | 83 | – | – | Cc1ccsc1C(=O)N1CCOC2(CCN(CCOc3ccc(CNC[C@H](O)c4ccc(O)c5[nH]c(=O)sc45)cc3)CC2)C1 [Example 232, (R)-4-hydroxy-7-(1-hydroxy-2-(4-(2-(4-(3-methylthiophene-2-carbonyl)-1-oxa-4,9-diazaspiro[5.5]undecan-9-yl)ethoxy)benzylamino)ethyl) benzo[d]thiazol-2(3H)-one]
32 | 66 | – | – | CC(C)c1cc(C(=O)N2CCOC3(CCN(CCOc4ccc(CNC[C@H](O)c5ccc(O)c6[nH]c(=O)sc56)cc4)CC3)C2)no1 [Example 255, (R)-4-hydroxy-7-(1-hydroxy-2-(4-(2-(4-(5-isopropylisoxazole-3-carbonyl)-1-oxa-4,9-diazaspiro[5.5]undecan-9-yl)ethoxy)benzylamino)ethyl) benzo[d]thiazol-2(3H)-one]

More lines, now with the values behind:

Compound | inhibition at 1 µM [1] [%] | activation at 1 µM [2] [%] | M3 (% inhibition at 1 μM) [1] [%] | β2 (% effect at 1 μM) ([2]; 1 μM compound) [%]
O=C(c1cc2ccccc2[nH]1)N1CCOC2(CCN(Cc3cc(F)cc(CCNC[C@H](O)c4ccc(O)c5[nH]c(=O)sc45)c3)CC2)C1 [Example 120, (R)-7-(2-(3-((4-(1H-indole-2-carbonyl)-1-oxa-4,9-diazaspiro[5.5]undecan-9-yl)methyl)-5-fluorophenethylamino)-1-hydroxyethyl)-4-hydroxybenzo[d]thiazol-2(3H)-one] | 82 | 101 | – | –
CC1=NNC(=O)C1CCC(=O)N1CCOC2(CCN(Cc3cc(F)cc(CCNC[C@H](O)c4ccc(O)c5[nH]c(=O)sc45)c3)CC2)C1 (stereo partly drawn) [Example 161, 7-((1R)-2-(3-fluoro-5-((4-(3-(3-methyl-5-oxo-4,5-dihydro-1H-pyrazol-4-yl)propanoyl)-1-oxa-4,9-diazaspiro[5.5]undecan-9-yl)methyl)phenethylamino)-1-hydroxyethyl)-4-hydroxybenzo[d]thiazol-2(3H)-one] | 42 | 87 | – | –
O=C(Cc1ccccc1)N1CCOC2(CCN(CCCCCCCCCNC[C@H](O)c3ccc(O)c4[nH]c(=O)sc34)CC2)C1 [Example 186, (R)-4-hydroxy-7-(1-hydroxy-2-(9-(4-(2-phenylacetyl)-1-oxa-4,9-diazaspiro[5.5]undecan-9-yl)nonylamino)ethyl)benzo[d]thiazol-2(3H)-one] | 95 | 86 | – | –
O=C(CCc1cccs1)N1CCOC2(CCN(CCCCCCCCCNC[C@H](O)c3ccc(O)c4[nH]c(=O)sc34)CC2)C1 [Example 207, (R)-4-hydroxy-7-(1-hydroxy-2-(9-(4-(3-(thiophen-2-yl)propanoyl)-1-oxa-4,9-diazaspiro[5.5]undecan-9-yl)nonylamino)ethyl)benzo[d]thiazol-2(3H)-one] | 94 | 101 | – | –
Cc1nn(-c2ccccc2)nc1C(=O)N1CCOC2(CCN(Cc3cc(F)cc(CCNC[C@H](O)c4ccc(O)c5[nH]c(=O)sc45)c3)CC2)C1 [Example 170, (R)-7-(2-(3-fluoro-5-((4-(5-methyl-2-phenyl-2H-1,2,3-triazole-4-carbonyl)-1-oxa-4,9-diazaspiro[5.5]undecan-9-yl)methyl)phenethylamino)-1-hydroxyethyl)-4-hydroxybenzo[d]thiazol-2(3H)-one] | 42 | 102 | – | –
Cc1ccnn1CC(=O)N1CCOC2(CCN(CCCCCCCCCNC[C@H](O)c3ccc(O)c4[nH]c(=O)sc34)CC2)C1 [Example 200, (R)-4-hydroxy-7-(1-hydroxy-2-(9-(4-(2-(5-methyl-1H-pyrazol-1-yl)acetyl)-1-oxa-4,9-diazaspiro[5.5]undecan-9-yl)nonylamino)ethyl)benzo[d]thiazol-2(3H)-one] | 70 | 92 | – | –
Cc1sccc1C(=O)N1CCOC2(CCN(CCCCCCCCCNC[C@H](O)c3ccc(O)c4[nH]c(=O)sc34)CC2)C1 [Example 205, (R)-4-hydroxy-7-(1-hydroxy-2-(9-(4-(2-methylthiophene-3-carbonyl)-1-oxa-4,9-diazaspiro[5.5]undecan-9-yl)nonylamino)ethyl)benzo[d]thiazol-2(3H)-one] | 91 | 85 | – | –
CCn1c(=O)n(CC(=O)N2CCOC3(CCN(Cc4cc(F)cc(CCNC[C@H](O)c5ccc(O)c6[nH]c(=O)sc56)c4)CC3)C2)c2ccccc21 [Example 135, (R)-7-(2-(3-((4-(2-(3-ethyl-2-oxo-2,3-dihydro-1H-benzo[d]imidazol-1-yl)acetyl)-1-oxa-4,9-diazaspiro[5.5]undecan-9-yl)methyl)-5-fluorophenethylamino)-1-hydroxyethyl)-4-hydroxybenzo[d]thiazol-2(3H)-one] | 1 | 106 | – | –
